Measurements published in patent US12295936B2, “Immunomodulating urea azalides” (Zoetis Services LLC, priority 2020, dated 2025).

tested on: BRD pathogens, M. haemolytica and P. multocida; experiment: MIC screening panel of BRD pathogens (antibacterial / non-antibacterial); conditions: read-out: antibacterial / non-antibacterial (MIC for the BRD pathogens)

| SMILES | MIC [µg/mL] |
| --- | --- |
| CC[C@H]1OC(=O)[C@H](C)[C@@H](O[C@H]2C[C@@](C)(OC)[C@](O)(CNCC3CC3)[C@H](C)O2)[C@H](C)[C@@H](O[C@@H]2O[C@H](C)C[C@H](N(C)C(=O)N(C)c3ccccc3)[C@H]2O)[C@](C)(O)C[C@@H](C)CN[C@H](C)[C@@H](O)[C@]1(C)O [Example H-41, 1-((2S,3R,4S,6R)-2-(((2R,3S,4R,5R,8R,10R,11R,12S,13S,14R)-13-(((2R,4R,5S,6S)-5-(((cyclopropylmethyl)amino)methyl)-5-hydroxy-4-methoxy-4,6-dimethyltetrahydro-2H-pyran-2-yl)oxy)-2-ethyl-3,4,10-trihydroxy-3,5,8,10,12,14-hexamethyl-15-oxo-1-oxa-6-azacyclopentadecan-11-yl)oxy)-3-hydroxy-6-methyltetrahydro-2H-pyran-4-yl)-1,3-dimethyl-3-phenylurea] | > 64 |
| CC[C@H]1OC(=O)[C@H](C)[C@@H](O[C@H]2C[C@@](C)(OC)[C@](O)(CNCCCn3ccccc3=O)[C@H](C)O2)[C@H](C)[C@@H](O[C@@H]2O[C@H](C)C[C@H](N(C)C(=O)N(C)c3ccccc3)[C@H]2O)[C@](C)(O)C[C@@H](C)CN[C@H](C)[C@@H](O)[C@]1(C)O [Example H-47, 1-((2S,3R,4S,6R)-2-(((2R,3S,4R,5R,8R,10R,11R,12S,13S,14R)-2-ethyl-3,4,10-trihydroxy-13-(((2R,4R,5S,6S)-5-hydroxy-4-methoxy-4,6-dimethyl-5-(((3-(2-oxopyridin-1(2H)-yl)propyl)amino)methyl)tetrahydro-2H-pyran-2-yl)oxy)-3,5,8,10,12,14-hexamethyl-15-oxo-1-oxa-6-azacyclopentadecan-11-yl)oxy)-3-hydroxy-6-methyltetrahydro-2H-pyran-4-yl)-1,3-dimethyl-3-phenylurea] | > 64 |
| CCCNC[C@]1(O)[C@H](C)O[C@@H](O[C@H]2[C@H](C)[C@@H](O[C@@H]3O[C@H](C)C[C@H](N(C)C(=O)N(C)c4cccnn4)[C@H]3O)[C@](C)(O)C[C@@H](C)CN[C@H](C)[C@@H](O)[C@](C)(O)[C@@H](CC)OC(=O)[C@@H]2C)C[C@@]1(C)OC [Example H-48, 1-((2S,3R,4S,6R)-2-(((2R,3S,4R,5R,8R,10R,11R,12S,13S,14R)-2-ethyl-3,4,10-trihydroxy-13-(((2R,4R,5S,6S)-5-hydroxy-4-methoxy-4,6-dimethyl-5-((propylamino)methyl)tetrahydro-2H-pyran-2-yl)oxy)-3,5,8,10,12,14-hexamethyl-15-oxo-1-oxa-6-azacyclopentadecan-11-yl)oxy)-3-hydroxy-6-methyltetrahydro-2H-pyran-4-yl)-1,3-dimethyl-3-(pyridazin-3-yl)urea] | > 64 |
| CCCNC[C@]1(O)[C@H](C)O[C@@H](O[C@H]2[C@H](C)[C@@H](O[C@@H]3O[C@H](C)C[C@H](N(C)C(=O)N(C)c4ncccn4)[C@H]3O)[C@](C)(O)C[C@@H](C)CN[C@H](C)[C@@H](O)[C@](C)(O)[C@@H](CC)OC(=O)[C@@H]2C)C[C@@]1(C)OC [Example H-49, 1-((2S,3R,4S,6R)-2-(((2R,3S,4R,5R,8R,10R,11R,12S,13S,14R)-2-ethyl-3,4,10-trihydroxy-13-(((2R,4R,5S,6S)-5-hydroxy-4-methoxy-4,6-dimethyl-5-((propylamino)methyl)tetrahydro-2H-pyran-2-yl)oxy)-3,5,8,10,12,14-hexamethyl-15-oxo-1-oxa-6-azacyclopentadecan-11-yl)oxy)-3-hydroxy-6-methyltetrahydro-2H-pyran-4-yl)-1,3-dimethyl-3-(pyrimidin-2-yl)urea] | > 64 |
| CCCNC[C@]1(O)[C@H](C)O[C@@H](O[C@H]2[C@H](C)[C@@H](O[C@@H]3O[C@H](C)C[C@H](N(C)C(=O)N(C)c4ncc(C5CC5)cn4)[C@H]3O)[C@](C)(O)C[C@@H](C)CN[C@H](C)[C@@H](O)[C@](C)(O)[C@@H](CC)OC(=O)[C@@H]2C)C[C@@]1(C)OC [Example H-52, 1-(5-cyclopropylpyrimidin-2-yl)-3-((2S,3R,4S,6R)-2-(((2R,3S,4R,5R,8R,10R,11R,12S,13S,14R)-2-ethyl-3,4,10-trihydroxy-13-(((2R,4R,5S,6S)-5-hydroxy-4-methoxy-4,6-dimethyl-5-((propylamino)methyl)tetrahydro-2H-pyran-2-yl)oxy)-3,5,8,10,12,14-hexamethyl-15-oxo-1-oxa-6-azacyclopentadecan-11-yl)oxy)-3-hydroxy-6-methyltetrahydro-2H-pyran-4-yl)-1,3-dimethylurea] | > 64 |
| CCCNC[C@]1(O)[C@H](C)O[C@@H](O[C@H]2[C@H](C)[C@@H](O[C@@H]3O[C@H](C)C[C@H](N(C)C(=O)N(C)c4cccnc4)[C@H]3O)[C@](C)(O)C[C@@H](C)CN[C@H](C)[C@@H](O)[C@](C)(O)[C@@H](CC)OC(=O)[C@@H]2C)C[C@@]1(C)OC [Example H-53, 1-((2S,3R,4S,6R)-2-(((2R,3S,4R,5R,8R,10R,11R,12S,13S,14R)-2-ethyl-3,4,10-trihydroxy-13-(((2R,4R,5S,6S)-5-hydroxy-4-methoxy-4,6-dimethyl-5-((propylamino)methyl)tetrahydro-2H-pyran-2-yl)oxy)-3,5,8,10,12,14-hexamethyl-15-oxo-1-oxa-6-azacyclopentadecan-11-yl)oxy)-3-hydroxy-6-methyltetrahydro-2H-pyran-4-yl)-1,3-dimethyl-3-(pyridin-3-yl)urea] | > 64 |
| CCCNC[C@]1(O)[C@H](C)O[C@@H](O[C@H]2[C@H](C)[C@@H](O[C@@H]3O[C@H](C)C[C@H](N(C)C(=O)N(c4ccccc4)C4CCOCC4)[C@H]3O)[C@](C)(O)C[C@@H](C)CN[C@H](C)[C@@H](O)[C@](C)(O)[C@@H](CC)OC(=O)[C@@H]2C)C[C@@]1(C)OC [Example H-55, 1-((2S,3R,4S,6R)-2-(((2R,3S,4R,5R,8R,10R,11R,12S,13S,14R)-2-ethyl-3,4,10-trihydroxy-13-(((2R,4R,5S,6S)-5-hydroxy-4-methoxy-4,6-dimethyl-5-((propylamino)methyl)tetrahydro-2H-pyran-2-yl)oxy)-3,5,8,10,12,14-hexamethyl-15-oxo-1-oxa-6-azacyclopentadecan-11-yl)oxy)-3-hydroxy-6-methyltetrahydro-2H-pyran-4-yl)-1-methyl-3-phenyl-3-(tetrahydro-2H-pyran-4-yl)urea] | > 64 |
| CCCNC[C@]1(O)[C@H](C)O[C@@H](O[C@H]2[C@H](C)[C@@H](O[C@@H]3O[C@H](C)C[C@H](N(C)C(=O)N(C)c4cc(C)nc(C)n4)[C@H]3O)[C@](C)(O)C[C@@H](C)CN[C@H](C)[C@@H](O)[C@](C)(O)[C@@H](CC)OC(=O)[C@@H]2C)C[C@@]1(C)OC [Example H-57, 1-(2,6-dimethylpyrimidin-4-yl)-3-((2S,3R,4S,6R)-2-(((2R,3S,4R,5R,8R,10R,11R,12S,13S,14R)-2-ethyl-3,4,10-trihydroxy-13-(((2R,4R,5S,6S)-5-hydroxy-4-methoxy-4,6-dimethyl-5-((propylamino)methyl)tetrahydro-2H-pyran-2-yl)oxy)-3,5,8,10,12,14-hexamethyl-15-oxo-1-oxa-6-azacyclopentadecan-11-yl)oxy)-3-hydroxy-6-methyltetrahydro-2H-pyran-4-yl)-1,3-dimethylurea] | > 64 |
| CCCN(C[C@]1(O)[C@H](C)O[C@@H](O[C@H]2[C@H](C)[C@@H](O[C@@H]3O[C@H](C)C[C@H](N(C)C(=O)N(C)c4ccccc4)[C@H]3O)[C@](C)(O)C[C@@H](C)CN[C@H](C)[C@@H](O)[C@](C)(O)[C@@H](CC)OC(=O)[C@@H]2C)C[C@@]1(C)OC)C(=O)N(C)c1ccccc1 [Example H-63, 1-((2S,3R,4S,6R)-2-(((2R,3S,4R,5R,8R,10R,11R,12S,13S,14R)-2-ethyl-3,4,10-trihydroxy-13-(((2R,4R,5S,6S)-5-hydroxy-4-methoxy-4,6-dimethyl-5-((3-methyl-3-phenyl-1-propylureido)methyl)tetrahydro-2H-pyran-2-yl)oxy)-3,5,8,10,12,14-hexamethyl-15-oxo-1-oxa-6-azacyclopentadecan-11-yl)oxy)-3-hydroxy-6-methyltetrahydro-2H-pyran-4-yl)-1,3-dimethyl-3-phenylurea] | > 64 |
| CCCNC[C@]1(O)[C@H](C)O[C@@H](O[C@H]2[C@H](C)[C@@H](O[C@@H]3O[C@H](C)C[C@H](N(C)C(=O)Nc4cccc(C#N)c4)[C@H]3O)[C@](C)(O)C[C@@H](C)CN[C@H](C)[C@@H](O)[C@](C)(O)[C@@H](CC)OC(=O)[C@@H]2C)C[C@@]1(C)OC [Example H-79, 3-(3-cyanophenyl)-1-((2S,3R,4S,6R)-2-(((2R,3S,4R,5R,8R,10R,11R,12S,13S,14R)-2-ethyl-3,4,10-trihydroxy-13-(((2R,4R,5S,6S)-5-hydroxy-4-methoxy-4,6-dimethyl-5-((propylamino)methyl)tetrahydro-2H-pyran-2-yl)oxy)-3,5,8,10,12,14-hexamethyl-15-oxo-1-oxa-6-azacyclopentadecan-11-yl)oxy)-3-hydroxy-6-methyltetrahydro-2H-pyran-4-yl)-1-methylurea] | > 64 |
| CCCNC[C@]1(O)[C@H](C)O[C@@H](O[C@H]2[C@H](C)[C@@H](O[C@@H]3O[C@H](C)C[C@H](N(C)C(=O)Nc4ccccc4Cl)[C@H]3O)[C@](C)(O)C[C@@H](C)CN[C@H](C)[C@@H](O)[C@](C)(O)[C@@H](CC)OC(=O)[C@@H]2C)C[C@@]1(C)OC [Example H-80, 3-(2-chlorophenyl)-1-((2S,3R,4S,6R)-2-(((2R,3S,4R,5R,8R,10R,11R,12S,13S,14R)-2-ethyl-3,4,10-trihydroxy-13-(((2R,4R,5S,6S)-5-hydroxy-4-methoxy-4,6-dimethyl-5-((propylamino)methyl)tetrahydro-2H-pyran-2-yl)oxy)-3,5,8,10,12,14-hexamethyl-15-oxo-1-oxa-6-azacyclopentadecan-11-yl)oxy)-3-hydroxy-6-methyltetrahydro-2H-pyran-4-yl)-1-methylurea] | > 64 |
